Laboratory results reported in PubChem BioAssay (NCI).
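Dose response: 5 concentrations. Exposure: 48 h. Format: 96-well plates. Endpoint: linear interpolation; highest concentration if not reached. GI50 is the concentration that inhibits growth by half. TGI marks complete inhibition of growth.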

Assays:
Assay in all cases: DTP human tumour cell line panel, 48 h
U251 CNS = test system: U251 CNS
NCI-H23 lung = test system: NCI-H23 lung
HL-60(TB) leukemia = test system: HL-60(TB) leukemia
LOX IMVI melanoma = test system: LOX IMVI melanoma
ACHN renal = test system: ACHN renal
MOLT-4 leukemia = test system: MOLT-4 leukemia
NCI-H226 lung = test system: NCI-H226 lung
OVCAR-5 ovarian = test system: OVCAR-5 ovarian
SF-539 CNS = test system: SF-539 CNS
T-47D breast = test system: T-47D breast

Row | Compound | TGI (U251 CNS) [µM] | TGI (NCI-H23 lung) [µM] | TGI (HL-60(TB) leukemia) [µM] | TGI (LOX IMVI melanoma) [µM] | TGI (ACHN renal) [µM] | TGI (MOLT-4 leukemia) [µM] | TGI (NCI-H226 lung) [µM] | TGI (OVCAR-5 ovarian) [µM] | TGI (SF-539 CNS) [µM] | TGI (T-47D breast) [µM] | GI50 (U251 CNS) [µM] | GI50 (SF-539 CNS) [µM] | GI50 (NCI-H23 lung) [µM] | GI50 (HL-60(TB) leukemia) [µM] | GI50 (ACHN renal) [µM] | GI50 (MOLT-4 leukemia) [µM] | GI50 (T-47D breast) [µM] | GI50 (NCI-H226 lung) [µM] | GI50 (OVCAR-5 ovarian) [µM]
1 | COC(=O)CCC(C)C1CCC2C3C(C[C@H](OC(C)=O)[C@]12C)[C@@]1(C)CCC2(C[C@H]1C[C@H]3OC(C)=O)OOC1(CC[C@]3(C)C4C[C@H](OC(C)=O)[C@]5(C)C(C(C)CCC(=O)OC)CCC5C4[C@H](OC(C)=O)C[C@@H]3C1)OO2 (stereo partly specified) | > 100 | > 100 | > 100 | > 100 | > 100 | > 100 | > 100 | > 100 |  |  |  |  |  |  |  |  |  |  | 
2 | COc1cc(C2C(Cl)C(=O)N2NC(=O)c2ccc(N)cc2)cc(Br)c1O (stereo unspecified) | 10.1 | 35.1 | 27.6 | 11 | 45.1 | 20 | 46.2 | 38.8 | 35.2 |  |  |  |  |  |  |  |  |  | 
3 | O=c1c2cc(Cl)cc(Cl)c2oc2nc3n(c(=O)c12)CCCS3 | > 100 | > 100 |  |  | > 100 | > 100 | > 100 | > 100 | > 100 | > 100 |  |  |  |  |  |  |  |  | 
4 | COC(=O)C1=C(C)C=C(N2CCOCC2)C(C(=O)OC)C1c1ccccc1 (stereo unspecified) | > 10 | > 10 |  | > 10 | > 10 | > 10 | > 10 | > 10 | > 10 | > 10 |  |  |  |  |  |  |  |  | 
5 | Nc1cc(=O)n(-c2ccccc2)c(=S)n1-c1ccccc1 | > 100 |  |  | > 100 | > 100 | > 100 | > 100 | > 100 | > 100 |  |  |  |  |  |  |  |  |  | 
6 | O=C(Nc1cccc2c1[nH]c1c(-c3ccccc3)nccc12)c1ccccc1[N+](=O)[O-] | > 100 | > 100 | > 100 | > 100 | > 100 | > 100 | 9.7 | 63.2 | 97 |  |  |  |  |  |  |  |  |  | 
7 | O=C1CC(=O)NC(=NNS(=O)(=O)c2ccccc2)N1 | > 100 | > 100 |  |  | > 100 | > 100 | > 100 | > 100 | > 100 | > 100 |  |  |  |  |  |  |  |  | 
8 | COC1(O)c2cccc(Cl)c2C(=O)N1C1(C(N)=O)CCCCC1 (stereo unspecified) | > 100 | > 53.1 | > 100 | > 100 |  | > 100 | > 100 | > 100 | > 100 |  |  |  |  |  |  |  |  |  | 
9 | CSc1ncc2c(n1)sc1c(=O)n(-c3ccccc3)cnc12 | > 100 | > 100 |  | > 100 | > 100 | > 100 | > 100 | > 100 |  | > 100 |  |  |  |  |  |  |  |  | 
10 | FC(F)(Sc1ncc[nH]1)c1nc2ccccc2o1 | > 100 | > 100 |  |  | > 100 | > 100 | > 100 | > 100 | > 100 | > 100 |  |  |  |  |  |  |  |  | 
11 | Clc1ccc(-c2c(C3=NCCCN3)nnn2-c2ccccc2)cc1 | > 100 | > 100 | 36.6 | 55.7 | > 100 | > 100 | > 100 | > 100 | > 100 |  |  |  |  |  |  |  |  |  | 
12 | O=C(O)C12CCCCC1CCCC2 (stereo unspecified) | > 100 | > 100 | > 100 | > 100 | > 100 | > 100 | > 100 | > 100 | > 100 |  |  |  |  |  |  |  |  |  | 
13 | Ic1cc2c(cc1C1SCCCS1)OCO2 | > 100 | > 100 | > 100 | > 100 | > 100 | > 100 | > 100 | > 100 | > 100 |  |  |  |  |  |  |  |  |  | 
14 | CN1CCN(Cc2ccc(NC(=O)c3cccc(C#Cc4cnc(N)c5ncccc45)c3F)cc2C(F)(F)F)CC1 | 1.43 | 16.4 | 18.7 |  | 1.09 | 3.06 | 1.97 | 1.52 | 1.5 | 14.8 | 0.741 | 0.733 | 3.99 | 1.68 | 0.477 | 0.77 | 5.78 | 0.647 | 0.722
15 | CSC12c3cc(C)n(-c4ccccc4)c3CC(C)(C)CN1C(=O)C2Oc1ccccc1 (stereo unspecified) | > 100 | > 100 |  | > 100 | > 100 | > 100 | > 100 | > 100 | > 100 | > 100 |  |  |  |  |  |  |  |  | 
16 | O=c1cn[nH]c(=S)n1/N=C/c1c[nH]c2ccccc12 | > 100 |  | 49.5 | 93.2 | > 100 | > 100 |  | > 100 | > 100 |  |  |  |  |  |  |  |  |  | 
17 | CC(=O)NC(Cc1ccsc1)C(=O)O (stereo unspecified) | > 100 | > 100 | > 100 | > 100 |  | > 100 | > 100 | > 100 | > 100 |  |  |  |  |  |  |  |  |  | 
